Paper PMC12316734, “Lipase Activation by Poly(Methyl Methacrylate) in Dispersed Solution: Mechanistic Insights by Fluorescence Spectroscopy” (Applied Biochemistry and Biotechnology, 2025)

Molecular target: T1, Bacillus subtilis lipase A (BSLA WT) (Bacillus subtilis, UniProt P37957)
T1 construct: gene estA
Experiment: fluorogenic hydrolysis assay
Format: biochemical
Conditions: 500 nM enzyme, 20 °C; W42C purified by cation exchange

CCCC(=O)Oc1ccc2c(C)cc(=O)oc2c1 [4-methylumbelliferyl butyrate]
fluorogenic hydrolysis assay: The kinetic effect of PMMA on BSLA WT and W42C was found to be identical
